ChEMBL document CHEMBL1201862, “PubChem BioAssay data set” (2004)
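Five compound concentrations were applied to cells in 96-well plates for 48 hours; endpoints were derived by simple linear interpolation of the resulting dose-response curve. GI50 marks 50% less growth.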 Calls of active or inactive are those of the source. Rule as the data show it: active = GI50 up to about 1.1 µM and inactive = higher.

Tests used:
Assay in all cases: NCI-60 cell line screen, 48 h
K562 = system: K562
RXF 393 = system: RXF 393
LOX IMVI = system: LOX IMVI
NCI-H226 = system: NCI-H226
SK-OV-3 = system: SK-OV-3
UACC-257 = system: UACC-257
HL-60 = system: HL-60
OVCAR-4 = system: OVCAR-4
SK-MEL-28 = system: SK-MEL-28
SNB-75 = system: SNB-75
SF-539 = system: SF-539
M14 = system: M14
PC-3 = system: PC-3
ACHN = system: ACHN
SNB-19 = system: SNB-19
TK-10 = system: TK-10
CAKI-1 = system: CAKI-1
OVCAR-3 = system: OVCAR-3
RPMI-8226 = system: RPMI-8226
SR = system: SR

Row | SMILES | GI50 (K562) | GI50 (RXF 393) | GI50 (LOX IMVI) | GI50 (NCI-H226) | GI50 (SK-OV-3) | GI50 (UACC-257) | GI50 (HL-60) | GI50 (OVCAR-4) | GI50 (SK-MEL-28) | GI50 (SNB-75) | GI50 (SF-539) | GI50 (M14) | GI50 (PC-3) | GI50 (ACHN) | GI50 (SNB-19) | GI50 (TK-10) | GI50 (CAKI-1) | GI50 (OVCAR-3) | GI50 (RPMI-8226) | GI50 (SR)
1 | O=C(Nc1cccc2ccccc12)c1ccccc1 | 76.6 µM (inactive) | 26.7 µM (inactive) | > 100 µM (inactive) | > 100 µM (inactive) | > 100 µM (inactive) | > 100 µM (inactive) | > 100 µM (inactive) | 24.5 µM (inactive) | > 100 µM (inactive) | 21.8 µM (inactive) | 64.7 µM (inactive) | > 100 µM (inactive) | 72.3 µM (inactive) | > 100 µM (inactive) | > 100 µM (inactive) | > 100 µM (inactive) | 99.1 µM (inactive) | 11.8 µM (inactive) |  | 
2 | c1cc2c(c(-c3c4ccccc4nc4ccccc34)c1)CC1(CC2)OCCO1 | > 100 µM (inactive) | > 100 µM (inactive) | > 100 µM (inactive) | > 100 µM (inactive) | > 100 µM (inactive) | > 100 µM (inactive) |  | > 100 µM (inactive) | > 100 µM (inactive) | > 100 µM (inactive) | > 100 µM (inactive) | > 100 µM (inactive) | > 100 µM (inactive) | > 100 µM (inactive) | > 100 µM (inactive) | > 100 µM (inactive) | > 100 µM (inactive) | > 100 µM (inactive) | > 100 µM (inactive) | 
3 | CC(=O)N1CCN(C=S)CC1 | > 100 µM (inactive) | > 100 µM (inactive) | > 100 µM (inactive) | > 100 µM (inactive) | > 100 µM (inactive) | > 100 µM (inactive) | > 100 µM (inactive) | > 100 µM (inactive) | > 100 µM (inactive) | > 100 µM (inactive) | > 100 µM (inactive) | > 100 µM (inactive) |  | > 100 µM (inactive) | > 100 µM (inactive) | > 100 µM (inactive) | > 100 µM (inactive) | > 100 µM (inactive) | > 100 µM (inactive) | > 100 µM (inactive)
4 | N#CSCc1nc2ccc(Cl)cc2c(-c2ccccc2)[n+]1[O-] | 25.7 µM (inactive) | 12.7 µM (inactive) | 18 µM (inactive) | 33.7 µM (inactive) |  | 42.3 µM (inactive) | 21.5 µM (inactive) | 25.5 µM (inactive) | 14.5 µM (inactive) | 32.7 µM (inactive) | > 10 µM (inactive) | 21.9 µM (inactive) |  | 16.9 µM (inactive) | 41.6 µM (inactive) | > 100 µM (inactive) | 25.8 µM (inactive) | 26.8 µM (inactive) | 25.3 µM (inactive) | 24.9 µM (inactive)
5 | COc1ccc(/C=C/c2cc(OC)c(OC)c(OC)c2)cc1OC | > 100 µM (inactive) | > 63 µM (inactive) | > 100 µM (inactive) | > 100 µM (inactive) | > 100 µM (inactive) | > 100 µM (inactive) | > 70.3 µM (inactive) | > 100 µM (inactive) | 55.6 µM (inactive) | > 44.3 µM (inactive) | > 86.1 µM (inactive) | > 100 µM (inactive) |  | > 100 µM (inactive) | > 100 µM (inactive) | > 100 µM (inactive) | > 83.6 µM (inactive) | > 100 µM (inactive) | > 100 µM (inactive) | > 100 µM (inactive)
6 | CCC(C)OC(=O)C1C2CCC(O2)C1C(=O)O (stereo not drawn) | > 100 µM (inactive) | > 41.5 µM (inactive) | > 41.9 µM (inactive) | > 100 µM (inactive) | > 100 µM (inactive) | > 70.5 µM (inactive) | > 100 µM (inactive) | > 100 µM (inactive) | > 100 µM (inactive) | > 100 µM (inactive) | 99.8 µM (inactive) | > 100 µM (inactive) |  | > 72.4 µM (inactive) | > 100 µM (inactive) | > 100 µM (inactive) | > 100 µM (inactive) | > 100 µM (inactive) | > 48.3 µM (inactive) | 19.2 µM (inactive)
7 | CCOC(=O)C1C(c2ccccc2)C2(C#N)C(=N)OC1(C)C2(C#N)C#N (stereo not drawn) | 19.8 µM (inactive) | 15.8 µM (inactive) | 16 µM (inactive) | 24.3 µM (inactive) | > 100 µM (inactive) | 20.5 µM (inactive) | 20.7 µM (inactive) |  |  | 1.51 µM (inactive) | 18.1 µM (inactive) | 40.6 µM (inactive) | 25.6 µM (inactive) | 20.9 µM (inactive) | 40.6 µM (inactive) | 26.2 µM (inactive) | 6.61 µM (inactive) |  | 20 µM (inactive) | 
8 | CN(C)C1(N(C)C)Oc2c(c(=O)n(C)c(=O)n2C)C(c2ccc(Br)cc2)C1(F)F (stereo not drawn) |  | > 100 µM (inactive) | > 100 µM (inactive) | > 100 µM (inactive) | > 100 µM (inactive) | > 100 µM (inactive) |  | > 100 µM (inactive) | > 100 µM (inactive) | > 100 µM (inactive) |  | > 100 µM (inactive) | > 100 µM (inactive) | > 100 µM (inactive) | > 100 µM (inactive) | > 100 µM (inactive) | > 100 µM (inactive) | > 100 µM (inactive) | > 100 µM (inactive) | 
9 | Cn1nc2ccc3nccc(N4CCN(CCO)CC4)c3c2n1 | 58.6 µM (inactive) | > 100 µM (inactive) | 0.371 µM (active) | > 100 µM (inactive) | > 100 µM (inactive) | > 100 µM (inactive) |  | > 100 µM (inactive) | > 100 µM (inactive) | > 100 µM (inactive) |  | > 100 µM (inactive) | 19.3 µM (inactive) | > 100 µM (inactive) | > 100 µM (inactive) | > 100 µM (inactive) |  | > 100 µM (inactive) |  | 
10 | CCOC1=C2N=C(C(CC)c3ccc(F)cc3)N=C2C(=O)c2ccccc21 (stereo not drawn) | 20.6 µM (inactive) | 11.6 µM (inactive) | 16.2 µM (inactive) | 16 µM (inactive) | 32.1 µM (inactive) | 20.2 µM (inactive) | 35.3 µM (inactive) | 19.7 µM (inactive) | 36.5 µM (inactive) | 21 µM (inactive) | 16.3 µM (inactive) | 26 µM (inactive) |  | 19.1 µM (inactive) | 51.4 µM (inactive) | 22 µM (inactive) | 22 µM (inactive) | 32.9 µM (inactive) | 23.8 µM (inactive) | 21.3 µM (inactive)
11 | CCCCCC(=O)C(C)C1=Nc2nnc(CCCCCCCc3nnc4n3C(=O)C(C(C)C(=O)CCCCC)=N4)n2C1=O (stereo not drawn) | > 100 µM (inactive) | > 100 µM (inactive) | > 100 µM (inactive) | > 100 µM (inactive) | > 100 µM (inactive) | > 100 µM (inactive) | > 100 µM (inactive) | > 100 µM (inactive) | > 100 µM (inactive) | > 100 µM (inactive) | > 100 µM (inactive) | > 100 µM (inactive) |  | > 100 µM (inactive) | > 100 µM (inactive) | > 100 µM (inactive) | > 100 µM (inactive) | > 100 µM (inactive) | > 100 µM (inactive) | > 100 µM (inactive)
12 | O=[N+]([O-])c1ccc2nc3ccccc3cc2c1 | 0.0782 µM (active) | 13.8 µM (inactive) | 2.04 µM (inactive) | 2.45 µM (inactive) | 4.21 µM (inactive) | 1.34 µM (inactive) |  | 2.48 µM (inactive) | 2.57 µM (inactive) | 3.7 µM (inactive) | 2.1 µM (inactive) | 3.33 µM (inactive) | 1.95 µM (inactive) | 3.04 µM (inactive) | 2.99 µM (inactive) | 1.64 µM (inactive) | 0.0149 µM (active) | 0.342 µM (active) |  | 
13 | CCCN(CCC)C(=O)c1c([N+](=O)[O-])cc(C(F)(F)F)cc1[N+](=O)[O-] | 28.3 µM (inactive) | 26.2 µM (inactive) | 35.7 µM (inactive) | 19.3 µM (inactive) | > 100 µM (inactive) | > 10 µM (inactive) | 20 µM (inactive) | 14.9 µM (inactive) | > 100 µM (inactive) | > 100 µM (inactive) | 41.6 µM (inactive) | 22.5 µM (inactive) |  | 65.9 µM (inactive) | 68.4 µM (inactive) | > 100 µM (inactive) | 60.7 µM (inactive) | 10.7 µM (inactive) | 47.6 µM (inactive) | 51.3 µM (inactive)
14 | CCOC(=O)c1[nH]c2nc(SC)nc(NC)c2c1N | 90.2 µM (inactive) | > 100 µM (inactive) | 43.2 µM (inactive) | 42.8 µM (inactive) | > 100 µM (inactive) | > 100 µM (inactive) |  | > 100 µM (inactive) | > 100 µM (inactive) | 70.5 µM (inactive) |  | 92.7 µM (inactive) | > 100 µM (inactive) | > 100 µM (inactive) | > 100 µM (inactive) | > 100 µM (inactive) | > 100 µM (inactive) | > 100 µM (inactive) | 46 µM (inactive) | 
15 | C[C@H]1C(=O)CC[C@]2(C)CCC(C(C)(C)O)CC12O (stereo partly drawn) | > 100 µM (inactive) | > 100 µM (inactive) | > 100 µM (inactive) | > 100 µM (inactive) | > 100 µM (inactive) | > 100 µM (inactive) | > 100 µM (inactive) | > 100 µM (inactive) | > 100 µM (inactive) | 12.8 µM (inactive) | > 100 µM (inactive) | > 100 µM (inactive) |  | > 100 µM (inactive) | > 100 µM (inactive) | > 100 µM (inactive) | > 100 µM (inactive) | > 100 µM (inactive) | > 100 µM (inactive) | > 100 µM (inactive)
16 | NC1=NC(=O)[C@H](Cc2c[nH]c3ccccc23)N1C(=O)OCc1ccccc1 | 30.8 µM (inactive) | 45.2 µM (inactive) | 68.5 µM (inactive) | 84.5 µM (inactive) |  | 49.3 µM (inactive) | 31.7 µM (inactive) | 51.8 µM (inactive) | < 0.01 µM (active) | 50.9 µM (inactive) |  |  | 46 µM (inactive) | > 100 µM (inactive) | > 100 µM (inactive) | > 100 µM (inactive) | > 100 µM (inactive) | 59.7 µM (inactive) |  | 
